Several values for one entry are separate records, joined by “and”; a condition that tells them apart may be missing. Equal values may be shown once. No end group written: not given here.
What was measured:
HBE cells = type: cell-based
Protocol: (§1) page 4: Additional toxicity studies at 16 hours incubation with peptides Figure S3. Figure S4. […]

THP-1 cells = type: cell-based
Protocol: as §1

[1] = Circular dichroism secondary structure in Euk33 ULVs; type: physicochemical; details: 10 μM peptide, 15 mM PBS pH 7, 37 °C
[2] = Circular dichroism secondary structure in G(−)IM ULVs; type: physicochemical; details: 10 μM peptide, 15 mM PBS pH 7, 37 °C
Protocol: Unilamellar vesicles (ULVs) of ∼600 Å diameter were prepared using an Avanti extruder: 200 μL of 20 mg/ml G(−)IM lipid in 15 mM PBS was extruded 21 times through Nucleopore filters of size 500 Å using 0.2 mL Hamilton syringes in the Avanti extruder. The final concentration of G(−)IM lipid in the ULVs was determined gravimetrically to be 15 mg/ml. Concentrated ULVs were added to 3 mL of 10 μM peptide in 15 mM PBS at pH 7 to create lipid/peptide molar ratios between 0:1 and 70:1. The samples remained at room temperature for ∼16 h before the CD measurement. Data were collected in 3 mL quartz cuvettes using a Jasco 1500 CD spectrophotometer at 37 °C in the Center for Nucleic Acids Science and Technology at Carnegie Mellon University. The samples were scanned from 200 to 240 nm 20 times, and the ellipticity (ϵ) results were averaged. Temperature was controlled at 37 °C via a Peltier element and water circulation through the sample compartment. Nitrogen gas was used at a flow rate between 20 and 25 ft^3/h (CFH). The parameters for scanning were: speed 100 nm/min, step size 1.0 nm, response time 1 second, bandwidth 1 nm, and sensitivity of 20 mdeg. OriginPro 2019 (OriginLab, Northampton, MA) was used to carry out a linear least-squares fit of the smoothed ellipticity traces to four secondary structural motifs representing α-helix, β-sheet, β-turn, and random coil.[20] This analysis gives a percentage match of each of the secondary structural motifs to the total sample ellipticity. Data were finally converted to mean residue ellipticity, taking into account the peptide concentration (10 μMolar) and number of amino acids (N), using the equation: MRE = (10^4/N)ϵ deg cm^2/dmol.

[3] = test system: eukaryotic cells vs bacteria; experiment: Therapeutic index (eukaryotic cell kill concentration / bacterial kill concentration); type: cell-based
Protocol: But more important than cytotoxicity is the therapeutic index (TI), which is the concentration at which ≥90% of eukaryotic cells are killed divided by the concentration at which ≥90% of bacteria are killed. For A4-153, this TI value is an estimated ≈ 128 μM/16 μM ≈ 8. TI for A4-157 is an estimated 128 μM/24 μM ≈ 5, and the TI for A4-183 is an estimated 64 μM/20 μM ≈ 3.

[4] = G(−)IM/peptide molar ratio 10:1
[5] = G(−)IM/peptide molar ratio 15:1
[6] = G(−)IM/peptide molar ratio 20:1
[7] = G(−)IM/peptide molar ratio 25:1
[8] = G(−)IM/peptide molar ratio 30:1
[9] = G(−)IM/peptide molar ratio 50:1

In the case of FKKFLKKFKGWLGGLWGK [A4-183], the “cytotoxicity” value (HBE cells) is reported as “greatest cytotoxicity at high concentrations”, the “cytotoxicity” value (THP-1 cells) is reported as “less toxic in THP-1 cells than in the other cell types” and the Random ([1]; Euk33/peptide molar ratio 0:1) is reported as 65.9%. It also gave a α-helix ([1]; Euk33/peptide molar ratio 0:1) of 3.1%, a β-sheet ([1]; Euk33/peptide molar ratio 0:1) of 31.0% and a β-turn ([1]; Euk33/peptide molar ratio 0:1) of 0%. For the same sequence, the Random ([1]; Euk33/peptide molar ratio 5:1) was 64.1%, the α-helix ([1]; Euk33/peptide molar ratio 5:1) was 8.6% and the β-sheet ([1]; Euk33/peptide molar ratio 5:1) was 27.3%. The β-turn ([1]; Euk33/peptide molar ratio 5:1) was 0%, the Random ([1]; Euk33/peptide molar ratio 10:1) was 67.8% and the α-helix ([1]; Euk33/peptide molar ratio 10:1) was 13.0%. For the same sequence, the β-sheet ([1]; Euk33/peptide molar ratio 10:1) was 19.2%, the β-turn ([1]; Euk33/peptide molar ratio 10:1) was 0% and the Random ([1]; Euk33/peptide molar ratio 20:1) was 61.2%. For the same sequence, the α-helix ([1]; Euk33/peptide molar ratio 20:1) was 10.4%, the β-sheet ([1]; Euk33/peptide molar ratio 20:1) was 28.4% and the β-turn ([1]; Euk33/peptide molar ratio 20:1) was 0%. For the same sequence, the Random ([1]; Euk33/peptide molar ratio 30:1) was 60.0%, the α-helix ([1]; Euk33/peptide molar ratio 30:1) was 13.6% and 14% and the β-sheet ([1]; Euk33/peptide molar ratio 30:1) was 26.4%. It also gave a β-turn ([1]; Euk33/peptide molar ratio 30:1) of 0%, a Random ([1]; Euk33/peptide molar ratio 70:1) of 37.4% and a α-helix ([1]; Euk33/peptide molar ratio 70:1) of 12.2%. For the same sequence, the β-sheet ([1]; Euk33/peptide molar ratio 70:1) was 50.4%, the β-turn ([1]; Euk33/peptide molar ratio 70:1) was 0% and the Random ([2]; G(−)IM/peptide molar ratio 0:1) was 65.9%. It also gave a α-helix ([2]; G(−)IM/peptide molar ratio 0:1) of 3.1%, a β-sheet ([2]; G(−)IM/peptide molar ratio 0:1) of 31.0% and a β-turn ([2]; G(−)IM/peptide molar ratio 0:1) of 0%. For the same sequence, the Random ([2]; G(−)IM/peptide molar ratio 1:1) was 64.1%, the α-helix ([2]; G(−)IM/peptide molar ratio 1:1) was 4.7% and the β-sheet ([2]; G(−)IM/peptide molar ratio 1:1) was 31.2%. The β-turn ([2]; G(−)IM/peptide molar ratio 1:1) was 0%, the Random ([2]; G(−)IM/peptide molar ratio 5:1) was 59.2% and the α-helix ([2]; G(−)IM/peptide molar ratio 5:1) was 22.6%. The β-sheet ([2]; G(−)IM/peptide molar ratio 5:1) was 18.2%, the β-turn ([2]; G(−)IM/peptide molar ratio 5:1) was 0% and the Random [2, 4] was 29.1%. The α-helix [2, 4] was 44.4%, the β-sheet [2, 4] was 14.9% and the β-turn [2, 4] was 11.6%. The Random [2, 5] was 0.4%, the α-helix [2, 5] was 63.0% and the β-sheet [2, 5] was 14.1%. The β-turn [2, 5] was 22.5%, the Random [2, 6] was 12.4% and the α-helix [2, 6] was 66.7%. The β-sheet [2, 6] was 8.8%, the β-turn [2, 6] was 12.1% and the Random [2, 7] was 11.7%. It also gave a α-helix [2, 7] of 64.9%, a β-sheet [2, 7] of 12.5% and a β-turn [2, 7] of 10.9%. For the same sequence, the Random [2, 8] was 13.0%, the α-helix [2, 8] was 69.4% and the β-sheet [2, 8] was 8.7%. The β-turn [2, 8] was 8.9%, the Random [2, 9] was 18.2% and the α-helix [2, 9] was 63.6%. The β-sheet [2, 9] was 9.1%, the β-turn [2, 9] was 9.1% and the “concentration at which ≥90% of bacteria are killed” value ([3]; denominator of TI) was 20 µM. The “concentration at which ≥90% of eukaryotic cells are killed (estimated)” value ([3]; numerator of TI) was roughly 64 µM.

— PMC10265666, “Lung SPLUNC1 Peptide Derivatives in the Lipid Membrane Headgroup Kill Gram-Negative Planktonic and Biofilm Bacteria” (Biomacromolecules, 2023)
